Converted amounts (≈) assume the structure as drawn.
What was measured:
UO-31 = assay: Growth inhibition of human UO-31 cells at 10 uM relative to control; type: functional; conditions: read-out: GI
HCC 2998 = assay: Growth inhibition of human HCC 2998 cells at 10 uM relative to control; type: functional; conditions: read-out: GI
OVCAR-5 = assay: Growth inhibition of human OVCAR-5 cells at 10 uM relative to control; type: functional; conditions: read-out: GI
LOX IMVI = assay: Growth inhibition of human LOX IMVI cells at 10 uM relative to control; type: functional; conditions: read-out: GI
NCI-H460 = assay: Growth inhibition of human NCI-H460 cells at 10 uM relative to control; type: functional; conditions: read-out: GI
PC-3 = assay: Growth inhibition of human PC-3 cells at 10 uM relative to control; type: functional; conditions: read-out: GI
SK-MEL-2 = assay: Growth inhibition of human SK-MEL-2 cells at 10 uM relative to control; type: functional; conditions: read-out: GI
SF-539 = assay: Growth inhibition of human SF-539 cells at 10 uM relative to control; type: functional; conditions: read-out: GI
Hs-578T = assay: Growth inhibition of human Hs-578T cells at 10 uM relative to control; type: functional; conditions: read-out: GI
MCF7 = assay: Growth inhibition of human MCF7 cells at 10 uM relative to control; type: functional; conditions: read-out: GI
TK-10 = assay: Growth inhibition of human TK-10 cells at 10 uM relative to control; type: functional; conditions: read-out: GI
MDA-MB-468 = assay: Growth inhibition of human MDA-MB-468 cells at 10 uM relative to control; type: functional; conditions: read-out: GI
HOP-92 = assay: Growth inhibition of human HOP-92 cells at 10 uM relative to control; type: functional; conditions: read-out: GI
SF-295 = assay: Growth inhibition of human SF-295 cells at 10 uM relative to control; type: functional; conditions: read-out: GI
T47D = assay: Growth inhibition of human T47D cells at 10 uM relative to control; type: functional; conditions: read-out: GI
SNB-75 = assay: Growth inhibition of human SNB-75 cells at 10 uM relative to control; type: functional; conditions: read-out: GI
NCI-H522 = assay: Growth inhibition of human NCI-H522 cells at 10 uM relative to control; type: functional; conditions: read-out: GI
IGROV-1 = assay: Growth inhibition of human IGROV-1 cells at 10 uM relative to control; type: functional; conditions: read-out: GI
DU-145 = assay: Growth inhibition of human DU-145 cells at 10 uM relative to control; type: functional; conditions: read-out: GI
NCI/ADR-RES = assay: Growth inhibition of human NCI/ADR-RES cells at 10 uM relative to control; type: functional; conditions: read-out: GI
MDA-MB-231 = assay: Growth inhibition of human MDA-MB-231 cells at 10 uM relative to control; type: functional; conditions: read-out: GI
NCI-H226 = assay: Growth inhibition of human NCI-H226 cells at 10 uM relative to control; type: functional; conditions: read-out: GI
SR = assay: Growth inhibition of human SR cells at 10 uM relative to control; type: functional; conditions: read-out: GI
ACHN = assay: Growth inhibition of human ACHN cells at 10 uM relative to control; type: functional; conditions: read-out: GI
SK-MEL-28 = assay: Growth inhibition of human SK-MEL-28 cells at 10 uM relative to control; type: functional; conditions: read-out: GI
UACC-257 = assay: Growth inhibition of human UACC-257 cells at 10 uM relative to control; type: functional; conditions: read-out: GI
U-251 = assay: Growth inhibition of human U-251 cells at 10 uM relative to control; type: functional; conditions: read-out: GI
CAKI-1 = assay: Growth inhibition of human CAKI-1 cells at 10 uM relative to control; type: functional; conditions: read-out: GI
HCT-116 = assay: Growth inhibition of human HCT-116 cells at 10 uM relative to control; type: functional; conditions: read-out: GI
OVCAR-8 = assay: Growth inhibition of human OVCAR-8 cells at 10 uM relative to control; type: functional; conditions: read-out: GI
SF-268 = assay: Growth inhibition of human SF-268 cells at 10 uM relative to control; type: functional; conditions: read-out: GI
BT-549 = assay: Growth inhibition of human BT-549 cells at 10 uM relative to control; type: functional; conditions: read-out: GI
OVCAR-4 = assay: Growth inhibition of human OVCAR-4 cells at 10 uM relative to control; type: functional; conditions: read-out: GI
UACC-62 = assay: Growth inhibition of human UACC-62 cells at 10 uM relative to control; type: functional; conditions: read-out: GI
M14 = assay: Growth inhibition of human M14 cells at 10 uM relative to control; type: functional; conditions: read-out: GI
HOP-62 = assay: Growth inhibition of human HOP-62 cells at 10 uM relative to control; type: functional; conditions: read-out: GI
SNB-19 = assay: Growth inhibition of human SNB-19 cells at 10 uM relative to control; type: functional; conditions: read-out: GI
NCI-H322M = assay: Growth inhibition of human NCI-H322M cells at 10 uM relative to control; type: functional; conditions: read-out: GI
HT-29 = assay: Growth inhibition of human HT-29 cells at 10 uM relative to control; type: functional; conditions: read-out: GI
A549 = assay: Growth inhibition of human A549 cells at 10 uM relative to control; type: functional; conditions: read-out: GI
A498 = assay: Growth inhibition of human A498 cells at 10 uM relative to control; type: functional; conditions: read-out: GI
Malme-3M = assay: Growth inhibition of human Malme-3M cells at 10 uM relative to control; type: functional; conditions: read-out: GI
SK-MEL-5 = assay: Growth inhibition of human SK-MEL-5 cells at 10 uM relative to control; type: functional; conditions: read-out: GI
SW-620 = assay: Growth inhibition of human SW-620 cells at 10 uM relative to control; type: functional; conditions: read-out: GI
NCI-H23 = assay: Growth inhibition of human NCI-H23 cells at 10 uM relative to control; type: functional; conditions: read-out: GI
HL-60(TB) = assay: Growth inhibition of human HL-60(TB) cells at 10 uM relative to control; type: functional; conditions: read-out: GI
CCRF-CEM = assay: Growth inhibition of human CCRF-CEM cells at 10 uM relative to control; type: functional; conditions: read-out: GI
HCT-15 = assay: Growth inhibition of human HCT-15 cells at 10 uM relative to control; type: functional; conditions: read-out: GI
SN12C = assay: Growth inhibition of human SN12C cells at 10 uM relative to control; type: functional; conditions: read-out: GI
786-0 = assay: Growth inhibition of human 786-0 cells at 10 uM relative to control; type: functional; conditions: read-out: GI
RPMI-8226 = assay: Growth inhibition of human RPMI-8226 cells at 10 uM relative to control; type: functional; conditions: read-out: GI
KM12 = assay: Growth inhibition of human KM12 cells at 10 uM relative to control; type: functional; conditions: read-out: GI
K562 = assay: Growth inhibition of human K562 cells at 10 uM relative to control; type: functional; conditions: read-out: GI
RXF 393 = assay: Growth inhibition of human RXF 393 cells at 10 uM relative to control; type: functional; conditions: read-out: GI
DNA = assay: Displacement of methyl green from DNA (unknown origin) assessed as DNA intercalation after 24 hrs by colorimetric assay; type: nucleic-acid assay
SK-OV-3 = assay: Growth inhibition of human SK-OV-3 cells at 10 uM relative to control; type: functional; conditions: read-out: GI
COLO 205 = assay: Growth inhibition of human COLO 205 cells at 10 uM relative to control; type: functional; conditions: read-out: GI
MOLT-4 = assay: Growth inhibition of human MOLT-4 cells at 10 uM relative to control; type: functional; conditions: read-out: GI
MDA-MB-435 = assay: Growth inhibition of human MDA-MB-435 cells at 10 uM relative to control; type: functional; conditions: read-out: GI

CCOC(=O)C1=CSC2=NC(/C=C/c3ccc(OC)c(OC)c3)=CC(c3ccc(OC)c(OC)c3)N12 (centres undefined)
inhibition of growth at 10 µM (UO-31): 20.2% | inhibition of growth at 10 µM (HCC 2998): < 10% | inhibition of growth at 10 µM (OVCAR-5): < 10% | inhibition of growth at 10 µM (LOX IMVI): < 10% | inhibition of growth at 10 µM (NCI-H460): < 10% | inhibition of growth at 10 µM (PC-3): 11.3% | inhibition of growth at 10 µM (SK-MEL-2): < 10% | inhibition of growth at 10 µM (SF-539): < 10% | inhibition of growth at 10 µM (Hs-578T): < 10% | inhibition of growth at 10 µM (MCF7): < 10% | inhibition of growth at 10 µM (TK-10): < 10% | inhibition of growth at 10 µM (MDA-MB-468): < 10% | inhibition of growth at 10 µM (HOP-92): 39.5% | inhibition of growth at 10 µM (SF-295): < 10% | inhibition of growth at 10 µM (T47D): < 10% | inhibition of growth at 10 µM (SNB-75): 25.3% | inhibition of growth at 10 µM (NCI-H522): 12% | inhibition of growth at 10 µM (IGROV-1): < 10% | inhibition of growth at 10 µM (DU-145): < 10% | inhibition of growth at 10 µM (NCI/ADR-RES): < 10% | inhibition of growth at 10 µM (MDA-MB-231): < 10% | inhibition of growth at 10 µM (NCI-H226): < 10% | inhibition of growth at 10 µM (SR): < 10% | inhibition of growth at 10 µM (ACHN): 12.8% | inhibition of growth at 10 µM (SK-MEL-28): < 10% | inhibition of growth at 10 µM (UACC-257): < 10% | inhibition of growth at 10 µM (U-251): < 10% | inhibition of growth at 10 µM (CAKI-1): < 10% | inhibition of growth at 10 µM (HCT-116): < 10% | inhibition of growth at 10 µM (OVCAR-8): < 10% | inhibition of growth at 10 µM (SF-268): < 10% | inhibition of growth at 10 µM (BT-549): < 10% | inhibition of growth at 10 µM (OVCAR-4): < 10% | inhibition of growth at 10 µM (UACC-62): < 10% | inhibition of growth at 10 µM (M14): < 10% | inhibition of growth at 10 µM (HOP-62): < 10% | inhibition of growth at 10 µM (SNB-19): < 10% | inhibition of growth at 10 µM (NCI-H322M): < 10% | inhibition of growth at 10 µM (HT-29): < 10% | inhibition of growth at 10 µM (A549): < 10% | inhibition of growth at 10 µM (A498): < 10% | inhibition of growth at 10 µM (Malme-3M): < 10% | inhibition of growth at 10 µM (SK-MEL-5): < 10% | inhibition of growth at 10 µM (SW-620): < 10% | inhibition of growth at 10 µM (NCI-H23): < 10% | inhibition of growth at 10 µM (HL-60(TB)): < 10% | inhibition of growth at 10 µM (CCRF-CEM): < 10% | inhibition of growth at 10 µM (HCT-15): < 10% | inhibition of growth at 10 µM (SN12C): < 10% | inhibition of growth at 10 µM (786-0): < 10% | inhibition of growth at 10 µM (RPMI-8226): < 10% | inhibition of growth at 10 µM (KM12): < 10% | inhibition of growth at 10 µM (K562): < 10% | inhibition of growth at 10 µM (RXF 393): < 10% | IC50 (DNA): 29.86 µg/mL (≈ 58.7 µM) | inhibition of growth at 10 µM (SK-OV-3): < 10% | inhibition of growth at 10 µM (COLO 205): < 10% | inhibition of growth at 10 µM (MOLT-4): < 10% | inhibition of growth at 10 µM (MDA-MB-435): < 10%
